Source: patent publication US8669282B2, “Companion animal compositions including lipoic acid and methods of use thereof” (Hill's Pet Nutrition, Inc., priority 2000, dated 2014)

Legend:
GSH:GSSG = GSH:GSSG ratio in blood lymphocytes of dogs fed dl-alpha-lipoic acid in extruded food; format: in vivo; details: chronic feeding in diet
Description: Thirty (30) adult, random source, dogs were utilized for this study. Dogs were at least 10 months of age, not pregnant, not lactating and of reasonable body weight prior to start of test. Animals were randomized into 5 groups for dietary treatment with 3 males and 3 females per each group.
All dogs were fed a control food (0 ppm dl-alpha-lipoic acid added) that met or exceeded all recommendations for nutrients as proposed by the American Association of Feed Control Officials (AAFCO 2000) during a 2 week prefeeding period (Table 2). Following the prefeeding period dogs were randomized into 5 treatment groups with one of the following dl-alpha lipoic acid target-inclusions (dry matter basis): 0 ppm, 150 ppm, 1500 ppm, 3000 ppm, 4500 ppm. […]
Solvents and separation conditions were as described (Fariss, Jones). Levels of GSH and GSSG were quantified relative to authentic standards. […]
Comparison of values for clinical chemistry, hematology and body weights vs baseline were analyzed by way of paired t-test on SAS for windows with significance set at P<0.05. Means of values at each measured time point were separated by a one-way ANOVA with significance set at P<0.05. The difference in GSH:GSSG between day 84 and baseline were analyzed between groups by way of SAS for windows in a one-way ANOVA with significance set at P<0.05.

[1] = test system: genes related to cartilage and energy metabolism; experiment: Differential gene expression profile, whole blood RNA, canine 2 Affymetrix genechips; format: in vivo, dogs
Description: Thirty (30) dogs were used to determine the effect of lipoic acid when compared to an AAFCO control food or a test food containing fish oil.
A differential gene expression profile was studied between an AAFCO control food, a food containing fish oil, and a food containing lipoic acid. At a minimum of 1.3 fold change, a list of 1212 genes was generated compared to the AAFCO control and 1896 genes compared to the food containing fish oil at d 30.
Total RNAs were isolated from whole blood samples using the PAXgene RNA isolation kit. All measurements were done with the canine 2 Affymetrix genechips. For statistical analysis, all measurements were normalized with RMA. All analysis was preformed using Partek. An ANOVA t-test was performed for genes that are differentially expressed between the control and test foods were selected based on p-value cutoff 0.1, fold change>+/−1.3.
Table 9 illustrates the change in genes related to cartilage metabolism and energy metabolism in dogs after being fed a control diet compared with dogs fed a control plus fish oil and a control plus lipoic acid for 90 days.

canine bone cells = experiment: Genes related to cartilage metabolism altered in canine bone cells; format: in vivo, dogs; details: 90 days
Description: Table 8 illustrates the directional change (up regulation or down regulation) in genes related to cartilage metabolism in dogs after being fed a control diet compared with dogs fed a control plus fish oil and a control plus lipoic acid for 90 days in canine bone cells.

plasma metabolites = experiment: Plasma metabolomics, fold change at day 30; format: in vivo, dogs
Protocol: Plasma metabolites were analyzed and were compared as fold change relative to the control fed dogs.
Table 5 illustrates the change in pyruvate blood levels in of dogs fed a control diet compared with dogs fed a control plus fish oil and a control plus lipoic acid.
Table 22 illustrates change in metabolite measured in blood samples for dogs after being fed a control diet compared with dogs fed a pet food including lipoic acid for 30 days.

[2] = test system: cartilage markers (CPII, CTXII, COMP); experiment: Serum cartilage (arthritic) markers by ELISA; format: in vivo, dogs; details: for Change CPII / Change CTXII / CPII: blood
Protocol: Serum cartilage markers were measured using ELISA based kits to determine concentrations of cartilage markers. Day 0 was used as a covariate in the analysis to adjust for baseline values.
Table 7 illustrates the change in blood level of arthritic markers in dogs after being fed a control diet compared with dogs fed a control plus fish oil and a control plus lipoic acid for 30 days and measured again at day 90.
Table 12 illustrates arthritic makers measured in blood samples for dogs after being fed a control diet compared with dogs fed a pet food including lipoic acid for 90 days.

[3] = test food containing 150 ppm lipoic acid, fold change >+/-1.3, p cutoff 0.1
[4] = blood, day 30, day 0 as covariate

## O=C(O)CCCCC1CCSS1 (racemic) [Lipoic acid, dl-alpha-lipoic acid]
GSH:GSSG
  reduced glutathione (GSH) to oxidized glutathione (GSSG) ratio, in words: improves
[1]; lipoic acid vs. control
  Fold change Facilitated glucose transporter 6: 1.3
  Fold change chondroitan sulfate protcoglycan 2 (veriscan): 1.5
[1]; lipoic acid vs. fish oil
  Fold change N-acetylgalactosaminyl-transferase 1: 1.3
[1]; [3]
  number of genes with altered expression vs AAFCO control food: 1212 genes
  number of genes with altered expression vs test food containing fish oil: 1896 genes
Canine bone cells; probe 1582602_at
  MMP3 gene, directional change: Down
Canine bone cells; probe 1582708_at
  TIMP2 gene, directional change: up
Canine bone cells; probe 1600479_at
  Prolyl 4-hydroxylase gene, directional change: up
Plasma metabolites; [4]
  Fold change in pyruvate, Lipoic acid vs Control: 0.5379
  Fold change in pyruvate, Lipoic acid vs Fish oil: 0.6274
Plasma metabolites; dogs fed a food containing lipoic acid
  metabolite hydroxyproline in plasma, in words: reduced
[2]; Day 30
  Change CPII: −95.10
  Change CTXII: −5.60
[2]; Day 30, d 0 as covariate
  CPII: 986.28 ng/mL
[2]; Day 90
  Change CPII: −232.70
  Change CTXII: −0.59
[2]; Day 90, d 0 as covariate
  CPII: 848.0 ng/mL
[2]; compared with a similar food without lipoic acid
  type II collagen C-propeptide and carboxy-terminal crosslinked telopeptide fragment of type II collagen, in words: greater decrease
